Data reported in patent US20260130933A1, “PHARMACEUTICAL COMPOSITION FOR PREVENTION OR TREATMENT OF NEPHROPATHY AND/OR DIABETES MELLITUS, COMPRISING ENAVOGLIFLOZIN” (DAEWOONG PHARMACEUTICAL CO., LTD., priority 2022, published 2026).

Test: Example 3: phase 3 trial, enavogliflozin 0.3 mg vs dapagliflozin 10 mg once a day for 24 weeks added to metformin and gemigliptin in patients with type 2 diabetes (same endpoints, rescue drug)
Assay type: in vivo, human
Conditions: for Subjects achieving therapeutic glycemic response 1, %: response 1 = HbA1c change >0.5% or HbA1c <7%; for Subjects achieving therapeutic glycemic response 2, %: response 2 = HbA1c change >0.7% or HbA1c <7%; for Subjects achieving therapeutic glycemic response 3, %: response 3 = HbA1c change >1% or HbA1c <7%
Description: 1) when Metformin (≥1,000 mg/Day) was Administered at a Constant Dose for at Least 8 Weeks Prior to Pre-Visit (Pre-Screening) • Metformin (≥1,000 mg/day) and gemigliptin (50 mg/day) were co-administered during the 8-week stabilization period. […] 4) when Metformin (≥1,000 mg/Day) and Gemigliptin (50 mg/Day) were Co-Administered at Constant Doses for at Least 8 Weeks Prior to Pre-Visit (Prescreening) • Without a separate stabilization period, Pre-visit (pre-screening) was Visit 1 (screening).
Subjects who met the inclusion/exclusion criteria continued to receive metformin and gemigliptin while receiving a placebo of the clinical trial drug in a single-blind (subject-blinded) state for a 2-week run-in period.
Here, the randomized subjects were stratified according to the administration therapy (co-administration with two or less agents (one or two agents) or three or more agents) of a conventional hypoglycemic agent (before washout of another hypoglycemic agent) within 24 weeks prior to obtaining written informed consent and by an HbA1c value (<8% or ≥8%) at Visit 1 (screening) measured in the central laboratory.
The randomized subjects were administered two tablets of the clinical trial drug corresponding to each administration group once a day, and then visited the institution at weeks 6, 12, 18, and 24 during the 24-week administration period to conduct efficacy and safety assessments. In addition, during the clinical trial period, they were instructed to exercise regularly and control their diet without changing their daily life patterns.
• 1) Change in HbA1c at week 24 after administration of clinical trial drug compared to Visit 2 (randomization)
• 1) Change in HbA1c at each time point of weeks 6, 12, and 18 after administration of clinical trial drug compared to Visit 2 (randomization) • 2) Change in FPG at each time point of weeks 6, 12, 18, and 24 after administration of clinical trial drug compared to Visit 2 (randomization) • 3) Proportion of subjects achieving HbA1c<7% at each time point of weeks 6, 12, 18, and 24 after administration of clinical trial drug • 4) Proportion of subjects achieving HbA1c<6.5% at each time point of weeks 6, 12, 18, and 24 after administration of clinical trial drug • 5) Proportion of subjects achieving therapeutic response (HbA1c change (HbA1c at Visit 2—HbA1c at each evaluation time point)>0.5% or HbA1c<7% at each evaluation time point compared to Visit 2 (randomization)) at each time point of weeks 6, 12, 18, and 24 after administration of clinical trial drug • 6) Proportion of subjects achieving therapeutic response (HbA1c change (HbA1c at Visit 2—HbA1c at each evaluation time point)>0.7% or HbA1c<7% at each evaluation time point compared to Visit 2 (randomization)) at each time point of weeks 6, 12, 18, and 24 after administration of clinical trial drug • 7) Proportion of subjects achieving therapeutic response (HbA1c change (HbA1c at Visit 2—HbA1c at each evaluation time point)>1% or HbA1c<7% at each evaluation time point compared to Visit 2 (randomization)) at each time point of weeks 6, 12, 18, and 24 after administration of clinical trial drug

[1] = week 18, per-protocol set, enavogliflozin 0.3 mg, dapagliflozin 10 mg
[2] = week 24, modified per-protocol set 1, enavogliflozin 0.3 mg, dapagliflozin 10 mg
[3] = week 24, modified per-protocol set 2
[4] = week 24, modified per-protocol set 2, enavogliflozin 0.3 mg, dapagliflozin 10 mg
[5] = week 24, per-protocol set, enavogliflozin 0.3 mg, dapagliflozin 10 mg

CCOc1ccc(Cc2cc([C@@H]3O[C@H](CO)[C@@H](O)[C@H](O)[C@H]3O)ccc2Cl)cc1 [Dapagliflozin, reference compound]
body weight, Median [1]: 62.30 kg
Subjects achieving therapeutic glycemic response 1, % [1]: 82.93%
Subjects achieving therapeutic glycemic response 2, % [1]: 76.42%
Subjects achieving therapeutic glycemic response 3, % [1]: 70.73%
FPG change from baseline, LS mean (SE) (week 24): −23.72(1.78) mg/dL
HDL-C change from baseline, LS mean (SE) (week 24): 4.40(0.69) mg/dL
HOMA-IR change from baseline, LS mean (SE) (week 24): −0.93(0.11)
HOMA-β change from baseline, LS mean (SE) (week 24): 5.78(4.72)
HbA1c change from baseline, LS mean (SE) (week 24): −0.86(0.05) % p
HbA1c change from baseline, Mean (SD) (week 24): −0.89(0.65) % p
LDL-C change from baseline, LS mean (SE) (week 24): 3.12(1.85) mg/dL
UACR change from baseline, LS mean (SE) (week 24): −16.13 (3.84) g/kg
UGCR change from baseline, LS mean (SE) (week 24): 43.51(2.26) mg/mg
adiponectin change from baseline, LS mean (SE) (week 24): 0.92(0.35) μg/mL
body weight change from baseline, LS mean (SE) (week 24): −3.01(0.22) kg
diastolic blood pressure change from baseline, LS mean (SE) (week 24): −1.89(0.70) mmHg
fasting C-peptide change from baseline, LS mean (SE) (week 24): −0.08(0.02) ng/ml
leptin change from baseline, LS mean (SE) (week 24): −0.57(0.51) ng/mL
systolic blood pressure change from baseline, LS mean (SE) (week 24): −4.27(0.93) mmHg
total cholesterol change from baseline, LS mean (SE) (week 24): 5.57(2.03) mg/dL
triglyceride change from baseline, LS mean (SE) (week 24): −8.78(3.94) mg/dL
Proportion of subjects who received a rescue drug (week 24, FAS): 0.74%
Change from baseline in HDL-C, ANCOVA LS mean [2]: 4.40 mg/dL
Change from baseline in HDL-C, Mean [2]: 4.44 mg/dL
Change from baseline in HDL-C, Median [2]: 4.00 mg/dL
Change from baseline in LDL-C, ANCOVA LS mean [2]: 3.12 mg/dL
Change from baseline in LDL-C, Mean [2]: 2.72 mg/dL
Change from baseline in LDL-C, Median [2]: 1.50 mg/dL
Change from baseline in total cholesterol, ANCOVA LS mean [2]: 5.57 mg/dL
Change from baseline in total cholesterol, Mean [2]: 4.69 mg/dL
Change from baseline in total cholesterol, Median [2]: 3.00 mg/dL
Change from baseline in triglycerides, ANCOVA LS mean [2]: -8.78 mg/dL
Change from baseline in triglycerides, Mean [2]: -13.81 mg/dL
Change from baseline in triglycerides, Median [2]: -6.00 mg/dL
Fasting HDL-C, Mean [2]: 51.87 mg/dL
Fasting HDL-C, Median [2]: 50.50 mg/dL
Fasting LDL-C, Mean [2]: 80.13 mg/dL
Fasting LDL-C, Median [2]: 71.50 mg/dL
Fasting total cholesterol, Mean [2]: 148.49 mg/dL
Fasting triglycerides, Mean [2]: 118.68 mg/dL
Fasting triglycerides, Median [2]: 104.00 mg/dL
fasting Total cholesterol, Median [2]: 145.00 mg/dL
Change from baseline in diastolic blood pressure, ANCOVA LS mean [3]: −1.89 mmHg
Change from baseline in diastolic blood pressure, Mean [3]: −1.60 mmHg
Change from baseline in diastolic blood pressure, Median [3]: −2.00 mmHg
Diastolic blood pressure, Mean [3]: 72.27 mmHg
Diastolic blood pressure, Median [3]: 73.00 mmHg
Change from baseline in systolic blood pressure, ANCOVA LS mean [4]: −4.27 mmHg
Change from baseline in systolic blood pressure, Mean [4]: −3.74 mmHg
Change from baseline in systolic blood pressure, Median [4]: −4.00 mmHg
Systolic blood pressure, Mean [4]: 120.20 mmHg
Systolic blood pressure, Median [4]: 119.00 mmHg
Adiponectin, Mean (week 24, per-protocol set): 7.18 µg/mL
Adiponectin, Median (week 24, per-protocol set): 6.39 µg/mL
Change from baseline in HOMA-IR, ANCOVA LS mean (week 24, per-protocol set): −0.93
Change from baseline in HOMA-IR, Mean (week 24, per-protocol set): −0.88
Change from baseline in HOMA-IR, Median (week 24, per-protocol set): −0.70
Change from baseline in HOMA-β, ANCOVA LS mean (week 24, per-protocol set): 5.78
Change from baseline in HOMA-β, Mean (week 24, per-protocol set): 7.95
Change from baseline in HOMA-β, Median (week 24, per-protocol set): 7.20
Change from baseline in UACR, ANCOVA LS mean (week 24, per-protocol set): -16.13 g/kg
Change from baseline in UACR, Mean (week 24, per-protocol set): -11.12 g/kg
Change from baseline in UACR, Median (week 24, per-protocol set): -0.70 g/kg
Change from baseline in UGCR, ANCOVA LS mean (week 24, per-protocol set): 43.51 mg/mg
Change from baseline in UGCR, Mean (week 24, per-protocol set): 42.31 mg/mg
Change from baseline in UGCR, Median (week 24, per-protocol set): 42.35 mg/mg
Change from baseline in adiponectin, ANCOVA LS mean (week 24, per-protocol set): 0.92 µg/mL
Change from baseline in adiponectin, Mean (week 24, per-protocol set): 0.84 µg/mL
Change from baseline in adiponectin, Median (week 24, per-protocol set): 0.78 µg/mL
Change from baseline in leptin, ANCOVA LS mean (week 24, per-protocol set): -0.57 ng/mL
Change from baseline in leptin, Mean (week 24, per-protocol set): -0.74 ng/mL
Change from baseline in leptin, Median (week 24, per-protocol set): -0.46 ng/mL
HOMA-IR (insulin resistance), Mean (week 24, per-protocol set): 1.97
HOMA-IR (insulin resistance), Median (week 24, per-protocol set): 1.55
HOMA-β (beta-cell function), Mean (week 24, per-protocol set): 48.41
HOMA-β (beta-cell function), Median (week 24, per-protocol set): 36.70
Leptin, Mean (week 24, per-protocol set): 10.10 ng/mL
Leptin, Median (week 24, per-protocol set): 8.14 ng/mL
UACR, Mean (week 24, per-protocol set): 23.58 g/kg
UACR, Median (week 24, per-protocol set): 10.20 g/kg
UGCR, Mean (week 24, per-protocol set): 43.84 mg/mg
UGCR, Median (week 24, per-protocol set): 42.85 mg/mg
Body weight, Mean [5]: 64.38 kg
Change from baseline in FPG, ANCOVA LS mean [5]: -23.72 mg/dL
Change from baseline in FPG, Mean [5]: -23.70 mg/dL
Change from baseline in FPG, Median [5]: -20.00 mg/dL
Change from baseline in body weight, ANCOVA LS mean [5]: -3.01 kg
Change from baseline in body weight, Mean [5]: -2.83 kg
Change from baseline in body weight, Median [5]: -2.60 kg
Change from baseline in fasting C-peptide, ANCOVA LS mean [5]: -0.08 ng/mL
Change from baseline in fasting C-peptide, Mean [5]: -0.07 ng/mL
Change from baseline in fasting C-peptide, Median [5]: -0.10 ng/mL
FPG, Mean [5]: 116.82 mg/dL
FPG, Median [5]: 114.00 mg/dL
Fasting C-peptide, Mean [5]: 0.62 ng/mL
Fasting C-peptide, Median [5]: 0.56 ng/mL
Subjects achieving HbA1c target of <6.5%, (%) [5]: 17.07%
Subjects achieving HbA1c target of <7%, % [5]: 62.60%
body weight, Median [5]: 62.90 kg
Subjects achieving therapeutic glycemic response 1, % [5]: 85.37%
Subjects achieving therapeutic glycemic response 2, % [5]: 82.11%
Subjects achieving therapeutic glycemic response 3, % [5]: 74.80%
